± gives the expanded uncertainty stated by the source.
Assay: wn = mass fraction of the nth substance listed
Settings: Gas, Burnett expansion method

FCC(F)(F)F [1,1,1,2-tetrafluoroethane] + CCC
mass density (282.99 K, 353.3 kPa, w2 = 0.55): 9.521 ± 0.59 kg/m3
mass density (282.99 K, 510.2 kPa, w2 = 0.65): 13.287 ± 0.61 kg/m3
mass density (282.99 K, 592.4 kPa, w2 = 0.55): 16.8344 ± 0.67 kg/m3
mass density (283 K, 155.9 kPa, w2 = 0.55): 4.0493 ± 0.54 kg/m3
mass density (283 K, 176.1 kPa, w2 = 0.6): 4.4337 ± 0.53 kg/m3
mass density (283 K, 205.5 kPa, w2 = 0.55): 5.3845 ± 0.55 kg/m3
mass density (283 K, 230.2 kPa, w2 = 0.65): 5.6511 ± 0.52 kg/m3
mass density (283 K, 270 kPa, w2 = 0.55): 7.1599 ± 0.56 kg/m3
mass density (283 K, 393.8 kPa, w2 = 0.65): 9.9922 ± 0.56 kg/m3
mass density (283 K, 459.5 kPa, w2 = 0.55): 12.6599 ± 0.63 kg/m3
mass density (283 K, 653.6 kPa, w2 = 0.65): 17.6674 ± 0.63 kg/m3
mass density (283.01 K, 175 kPa, w2 = 0.65): 4.2497 ± 0.51 kg/m3
mass density (283.86 K, 174.7 kPa, w2 = 0.4): 5.14203 ± 0.62 kg/m3
mass density (283.87 K, 229.9 kPa, w2 = 0.4): 6.84912 ± 0.63 kg/m3
mass density (283.87 K, 301.6 kPa, w2 = 0.4): 9.12315 ± 0.65 kg/m3
mass density (283.88 K, 393.6 kPa, w2 = 0.4): 12.1512 ± 0.68 kg/m3
mass density (283.9 K, 510.3 kPa, w2 = 0.4): 16.1858 ± 0.73 kg/m3
mass density (283.94 K, 655.1 kPa, w2 = 0.4): 21.5571 ± 0.77 kg/m3
mass density (284.1 K, 397.4 kPa, w2 = 0.45): 11.7333 ± 0.65 kg/m3
mass density (284.1 K, 515.6 kPa, w2 = 0.45): 15.6293 ± 0.7 kg/m3
mass density (284.1 K, 662.3 kPa, w2 = 0.45): 20.819 ± 0.72 kg/m3
mass density (284.11 K, 176.2 kPa, w2 = 0.45): 4.96426 ± 0.59 kg/m3
mass density (284.11 K, 231.9 kPa, w2 = 0.45): 6.61256 ± 0.6 kg/m3
mass density (284.11 K, 304.4 kPa, w2 = 0.45): 8.80835 ± 0.62 kg/m3
mass density (284.11 K, 711.7 kPa, w2 = 0.5): 21.5401 ± 0.72 kg/m3
mass density (284.12 K, 555.4 kPa, w2 = 0.5): 16.1702 ± 0.68 kg/m3
mass density (284.13 K, 189.6 kPa, w2 = 0.5): 5.13602 ± 0.56 kg/m3
mass density (284.13 K, 249.8 kPa, w2 = 0.5): 6.84131 ± 0.58 kg/m3
mass density (284.13 K, 327.9 kPa, w2 = 0.5): 9.11297 ± 0.6 kg/m3
mass density (284.13 K, 428.3 kPa, w2 = 0.5): 12.139 ± 0.63 kg/m3
mass density (287 K, 196.2 kPa, w2 = 0.6): 4.8811 ± 0.52 kg/m3
mass density (287 K, 768.5 kPa, w2 = 0.65): 20.9537 ± 0.65 kg/m3
mass density (287.01 K, 258.3 kPa, w2 = 0.6): 6.4904 ± 0.53 kg/m3
mass density (287.01 K, 274.8 kPa, w2 = 0.65): 6.7019 ± 0.52 kg/m3
mass density (287.01 K, 311.4 kPa, w2 = 0.55): 8.1881 ± 0.56 kg/m3
mass density (287.01 K, 338.5 kPa, w2 = 0.6): 8.6303 ± 0.55 kg/m3
mass density (287.01 K, 406.7 kPa, w2 = 0.55): 10.8878 ± 0.59 kg/m3
mass density (287.01 K, 527.4 kPa, w2 = 0.55): 14.4779 ± 0.63 kg/m3
mass density (287.01 K, 571.1 kPa, w2 = 0.6): 15.26 ± 0.62 kg/m3
mass density (287.01 K, 603.8 kPa, w2 = 0.65): 15.7575 ± 0.62 kg/m3
mass density (287.01 K, 677.5 kPa, w2 = 0.55): 19.2516 ± 0.66 kg/m3
mass density (287.01 K, 730.6 kPa, w2 = 0.6): 20.2911 ± 0.66 kg/m3
mass density (287.02 K, 180 kPa, w2 = 0.55): 4.6307 ± 0.54 kg/m3
mass density (287.02 K, 209 kPa, w2 = 0.65): 5.0401 ± 0.51 kg/m3
mass density (287.02 K, 237.2 kPa, w2 = 0.55): 6.1576 ± 0.54 kg/m3
mass density (287.02 K, 359.7 kPa, w2 = 0.65): 8.9115 ± 0.54 kg/m3
mass density (287.02 K, 441.6 kPa, w2 = 0.6): 11.4756 ± 0.58 kg/m3
mass density (287.02 K, 467.8 kPa, w2 = 0.65): 11.85 ± 0.57 kg/m3
mass density (287.89 K, 145.9 kPa, w2 = 0.4): 4.20423 ± 0.6 kg/m3
mass density (287.89 K, 192.3 kPa, w2 = 0.4): 5.60013 ± 0.61 kg/m3
mass density (287.89 K, 253 kPa, w2 = 0.4): 7.45965 ± 0.63 kg/m3
mass density (287.89 K, 331.1 kPa, w2 = 0.4): 9.93648 ± 0.65 kg/m3
mass density (287.9 K, 431.5 kPa, w2 = 0.4): 13.2354 ± 0.69 kg/m3
mass density (287.9 K, 558 kPa, w2 = 0.4): 17.6298 ± 0.74 kg/m3
mass density (287.93 K, 714.8 kPa, w2 = 0.4): 23.4815 ± 0.77 kg/m3
mass density (288.06 K, 650.7 kPa, w2 = 0.45): 19.9802 ± 0.74 kg/m3
mass density (288.07 K, 171.7 kPa, w2 = 0.45): 4.76422 ± 0.58 kg/m3
mass density (288.07 K, 226.1 kPa, w2 = 0.45): 6.34615 ± 0.59 kg/m3
mass density (288.07 K, 297 kPa, w2 = 0.45): 8.45356 ± 0.61 kg/m3
mass density (288.07 K, 388.5 kPa, w2 = 0.45): 11.2604 ± 0.64 kg/m3
mass density (288.07 K, 505 kPa, w2 = 0.45): 14.9994 ± 0.68 kg/m3
mass density (288.07 K, 827.4 kPa, w2 = 0.45): 26.6134 ± 0.78 kg/m3
mass density (288.18 K, 242.5 kPa, w2 = 0.5): 6.52495 ± 0.57 kg/m3
mass density (288.18 K, 416.8 kPa, w2 = 0.5): 11.5774 ± 0.61 kg/m3
mass density (288.19 K, 184.1 kPa, w2 = 0.5): 4.89841 ± 0.55 kg/m3
mass density (288.19 K, 318.7 kPa, w2 = 0.5): 8.69128 ± 0.58 kg/m3
mass density (288.19 K, 541.6 kPa, w2 = 0.5): 15.4214 ± 0.65 kg/m3
mass density (288.19 K, 696.9 kPa, w2 = 0.5): 20.5413 ± 0.69 kg/m3
mass density (291 K, 851.2 kPa, w2 = 0.55): 24.7999 ± 0.71 kg/m3
mass density (291.01 K, 519.6 kPa, w2 = 0.55): 14.0252 ± 0.61 kg/m3
mass density (291.01 K, 669.4 kPa, w2 = 0.55): 18.65 ± 0.67 kg/m3
mass density (291.02 K, 399.8 kPa, w2 = 0.55): 10.5472 ± 0.58 kg/m3
mass density (291.03 K, 305.7 kPa, w2 = 0.55): 7.9316 ± 0.55 kg/m3
mass density (291.04 K, 168.3 kPa, w2 = 0.6): 4.1049 ± 0.5 kg/m3
mass density (291.04 K, 222.1 kPa, w2 = 0.6): 5.4582 ± 0.51 kg/m3
mass density (291.04 K, 232.6 kPa, w2 = 0.55): 5.9647 ± 0.54 kg/m3
mass density (291.04 K, 292.1 kPa, w2 = 0.6): 7.2581 ± 0.53 kg/m3

Source: the NIST ThermoML archive (doi:10.1016/j.jct.2013.10.031)
